Assay results published in patent US20100003217A1, “Compounds and Pharmaceutical Compositions for the Treatment of Viral Infections” (priority 2008, published 2010).

Assays:
[1] = system: HCV genotype 1b replicon (GS4.1 cells); experiment: HCV replicon assay (NS4A ELISA); type: cell-based, hepatitis C virus; details: 3 days
Experimental: The biological activity of Compound 1, diastereomer 1 and diastereomer 2 was measured by monitoring expression of the NS4A protein by enzyme-linked immunosorbent assay (ELISA) and by luciferase assay as described below:
The HCV replicon assay measures the ability of a test compound to inhibit HCV replication in cell culture after 3 days of treatment in a human hepatoma cell line (Huh-7) bearing the HCV genotype 1b replicon (GS4.1 cells). The inhibition of HCV replication was measured by quantification of viral NS4A protein using an enzyme-linked immunosorbent assay (ELISA). […] Additionally, the replicon contains the neomycin phosphotransferase gene under the control of the HCV promoter (Source: Dr. Christoph Seeger, Fox Chase Cancer Center, Philadelphia, Pa.).
The NS4A ELISA assay is summarized as follows. Ninety-six-well tissue culture plates were seeded with GS4.1 cells. Antiviral compound solutions were made up freshly in medium as 2×-concentrated stocks. Eight additional 3-fold drug dilutions were prepared from these stocks in medium for a total of 9 dilutions. At least four hours after GS4.1 cells were seeded, drug treatment was initiated by adding one volume of each 2× concentrated drug dilution to one volume of cells/medium in the tissue culture plates. Cells were then incubated for 3 days at 37° C./5% CO2.
The media/compound was then removed from the plates and cells were fixed with acetone:methanol, washed three times with a wash solution, and then blocked for 1 hour with 10% fetal bovine serum in a balanced salt solution. Cells were washed three times and incubated with an anti-hepatitis C NS4A monoclonal antibody (Virogen Corp.) for 2 hours at 37° C. […] The reaction was stopped with diluted sulfuric acid (Mallinckrodt Chemicals) and absorbance measured on a Victor^3V 1420 multilabel counter (Perkin Elmer). EC50 values were calculated from dose response curves from the resulting best-fit equations determined by Microsoft Excel and XLfit 4.1 software.

[2] = system: HCV genotype 1b replicon (Zluc cells); experiment: HCV luciferase replicon assay; type: cell-based, hepatitis C virus; details: 3 days
Experimental: The HCV luciferase replicon assay measures the ability of a test compound to inhibit HCV replication in cell culture after 3 days of treatment in a human hepatoma cell line (Huh-7) bearing the HCV genotype 1b replicon and a luciferase-neomycin phosphotransferase fusion gene. The inhibition of HCV replication was measured by quantification of luciferase protein expression. The HCV luciferase replicon was constructed by fusing a luciferase gene to the amino terminus of the neomycin phosphotransferase gene of the ZS11 HCV replicon. The ZS11 HCV replicon (Zhu Q, Guo J-T, and Seeger C, 2003) is derived from the SP1 replicon, but contains three cell culture-adapted mutations: E1202G (NS3), S22041 (NS5A), and D2254E (NS5A). These mutations allow for efficient in vitro replication. The luciferase reporter gene was amplified from the pGL4.13[luc2/SV40] vector (Promega Corp.). The replicon resulting from the luciferase-neomycin fusion (ZS11-luc) was stably-transfected into Huh-7 cells, yielding the Zluc cell line.
The luciferase replicon assay is summarized as follows: Solid white 96-well tissue culture plates (BD Falcon) were seeded with Zluc cells. Antiviral compound solutions were made up freshly in medium as 2×-concentrated stocks. Eight additional 3-fold drug dilutions were prepared from these stocks in medium for a total of 9 dilutions. At least four hours after Zluc cells were seeded, drug treatment was initiated by adding one volume of each 2×-concentrated drug dilution to one volume of cells/medium in the tissue culture plates. Cells were then incubated for 3 days at 37° C./5% CO2.
The media/compound was then removed from the plates and the ONE-glo Luciferase assay reagent (Promega) was added to each well. The assay plates were shaken for 3 minutes at room temperature and luciferase activity for each well was measured with a 1 sec read time on the Victor^3V multilabel counter using a 700 nm cut-off filter (Perkin Elmer). EC50 values were calculated from dose response curves from the resulting best-fit equations determined by Microsoft Excel and XLfit 4.1 software.

GS4.1 cells [3] = experiment: Cytotoxicity assay (MTS), GS4.1 cells; type: cell-based, human; details: 3 days (NS4A-ELISA Assay)
Experimental: (§1) The cytotoxicity assay measures the viability of cells after treatment with a test compound for 3 days in either GS4.1 cells or Zluc cells. […] The cytotoxicity assay is summarized as follows. Ninety-six-well tissue culture plates were seeded with GS4.1 or Zluc cells. Antiviral compound solutions were made up freshly in medium as 2×-concentrated stocks. Eight additional 3-fold drug dilutions were prepared from these stocks in medium for a total of 9 dilutions. At least four hours after the cells were seeded, drug treatment was initiated by adding one volume of each 2×-concentrated drug dilution to one volume of cells/medium in the tissue culture plates. Cells were then incubated for 3 days at 37° C./5% CO2. After 3 days of treatment, the CellTiter 96® Aqueous One Solution cell proliferation assay (Promega) was performed by adding the MTS solution to each well. The plates were then incubated at 37° C./5% CO2 for 3.5 hours. Plates were then read in a Victor^3V 1420 multilabel counter (Perkin Elmer) and CC50 concentrations were determined using Microsoft Excel and XLfit 4.1 software.

Zluc cells = experiment: Cytotoxicity assay (MTS), Zluc cells; type: cell-based, human
Experimental: as §1

[4] = Cytotoxicity (MTS assay), 184R-A cells; type: cell-based; details: human, 184R-A cells (S282T), 184R-A (S282T), N = 3
Experimental: (§2) Cells were plated and treated with inhibitors as described above.

[5] = system: wild-type HCV replicon (GS4.1 cells); experiment: microbe, parasite or virus in culture; details: Hepatitis C virus
Experimental: (§3) 1. […] Huh-7 cells were seeded into column 1 of each plate at a similar density.
(§4) 2. […] Eight additional 3-fold serial dilutions of each compound were prepared from the 2× stock in assay medium. Final drug concentrations ranged from 100 to 0.015 μM.
(§5) 3. […] This setup was run in duplicate in each 96-well plate.
(§6) 4. Cells were incubated with inhibitors for three days at 37° C./5% CO2.
(§7) 1. After three days of drug treatment, media was removed from the plates via gentle tapping and the cells were fixed to the plates with 100 μL/well of 1:1 acetone:methanol.
(§8) 2. After one minute of incubation at room temperature, plates were washed three times with 100 μL/well of ELISA wash solution and then blocked with 150 μL/well of 10% FBS-TNE.
(§9) 3. After a one hour incubation at room temperature, plates were washed three times with 100 μL/well of ELISA wash solution, and then 100 μL/well of mouse anti-hepatitis C […] mAb (1 mg/mL stock diluted 1:1,500 in 10% FBS-TNE) was added.
(§10) 4. Following 2 hours of incubation at 37° C., plates were washed three times with 100 μL/well of ELISA wash solution, and then 100 μL/well of HRP-goat anti-mouse antibody (diluted 1:4,000 in 10% FBS-TNE) was added.
(§11) 4. After a one hour incubation period at 37° C., each plate was washed three times with 100 μL/well of ELISA wash solution. Color development was then initiated with 100 μL/well of OPD solution.
(§12) 5. After a 30 minute incubation period in the dark at room temperature, reactions were stopped by adding 100 μL of 2NH2SO4 to each well.
(§13) 6. The absorbance was measured at 490 nm on a Victor^3 V 1420 multilabel counter (Perkin Elmer). The percent inhibition of HCV replicon replication was calculated for each drug using an average of the duplicate wells.

[6] = system: S282T HCV replicon (184R-D2 cells); experiment: microbe, parasite or virus in culture; details: Hepatitis C virus
Experimental: as §3, §4, §5, §6, §7, §8, §9, §10, §11, §12, §13

[7] = system: S282T HCV replicon (184R-A cells); experiment: microbe, parasite or virus in culture; details: Hepatitis C virus
Experimental: 3. The 184R-A cell line was derived by culturing wild-type replicon cells in the presence of 1 to 5 μM of Compound 1 for >100 days.
as §3, §4, §5, §6, §7, §8, §9, §10, §11, §12, §13

[8] = Cytotoxicity (MTS assay), 184R-D2 cells; type: cell-based; details: human, 184R-D2 cells (S282T), 184R-D2 (S282T), N = 3
Experimental: as §2

[9] = system: HCV genotype 1b replicon (GS4.1 cells); experiment: In vitro combination of Compound 1 and ribavirin on HCV replicon (NS4A ELISA; MacSynergy II, CombiTool, CalcuSyn); type: cell-based; details: Hepatitis C virus, 72 h, single-drug titration experiments, three days
Experimental: This setup was run in duplicate in each 96-well plate.
Cells were incubated with inhibitors for three days at 37° C./5% CO2.
After three days of drug treatment, media was removed from the plates via gentle tapping and the cells were fixed to the plates with 100 μL/well of 1:1 acetone:methanol.
After one minute of incubation at room temperature, plates were washed three times with 100 μL/well of ELISA wash solution and then blocked with 150 μL/well of 10% FBS-TNE.
After a one hour incubation period at 37° C., each plate was washed three times with 100 μL/well of ELISA wash solution. Color development was then initiated with 100 μL/well of OPD solution.
After a 30 minute incubation period in the dark at room temperature, reactions were stopped by adding 100 μL of 2NH2SO4 to each well.
The absorbance was measured at 490 nm on a Victor^3 V 1420 multilabel counter (Perkin Elmer).

[10] = Cytotoxicity (MTS assay), GS4.1 cells, Example 18; type: cell-based, human; details: human, GS4.1 cells (wild-type); GS4.1 (wild-type), MTS assay, N = 3
Experimental: as §2

GS4.1 cells [11] = experiment: Cytotoxicity (MTS assay), GS4.1 cells, Example 18; type: cell-based, human; details: wild-type or S282T replicon cells treated with up to 100 μM
Experimental: as §2

GS4.1 cells [12] = experiment: Cytotoxicity of Compound 1 and RBV on GS4.1 cells using MTS assay (combination study); details: three days, 0.6× to 1.5× EC50, alone or in combination
Experimental: The readout of the assay was measured by the bioreduction of the yellow MTS tetrazolium compound to a purple formazan product. This conversion is mediated by NADPH or NADH in metabolically active cells and is therefore directly proportional to the number of live cells in a culture. Plates were setup as described above.
Cells were plated and treated with inhibitors using the drug matrix described above.
After three days of drug treatment, 20 μL of MTS was added to each well, and then plates were incubated at 37° C./5% CO2.

CC(C)(CO)C(=O)SCCOP(=O)(NCc1ccccc1)OC[C@H]1O[C@@H](n2cnc3c(=O)[nH]c(N)nc32)[C@](C)(O)[C@@H]1O (single isomer, unassigned; diastereomer 2) [Diastereomer 2]
EC50 [1]: 244 ± 98 nM
EC50 [2]: 56.8 ± 0.6 nM
CC50 (GS4.1 cells [3]): > 100 µM
CC50 (Zluc cells): > 100 µM

NC(=O)c1ncn([C@@H]2O[C@H](CO)[C@@H](O)[C@H]2O)n1 [RBV, ribavirin, reference compound]
CC50 at 3 days [4]: > 100 µM
EC50 [5]: 38 ± 2.8 µM
EC50 [6]: 17 ± 3.5 µM
EC50 [7]: 12.3 ± 1.9 µM
CC50 at 3 days [8]: > 100 µM
EC50 [9]: 21.8 ± 3.6 µM
CC50 at 3 days [10]: > 100 µM
in vitro cytotoxicity (MTS) (GS4.1 cells [11]): no evidence of in vitro cytotoxicity
in vitro cytotoxicity (MTS) (GS4.1 cells [12]): no evidence of in vitro cytotoxicity
